Test results: patent publication US20160151403A1, “SMALL MOLECULE MODULATORS OF P53 FAMILY SIGNALING” (The Trustees of the University of Pennsylvania, priority 2006, published 2016)
Entries after “also recorded” stand apart in the source; their conditions may differ.

Assays:
[1] = test system: p53 protein expression in HCT116 cells; test: Western blot of p53 protein in parental HCT116 cells; type: cell-based, human; conditions: FIG. 2A
Method: (§1) Cells were collected and protein concentration was quantified by the Bio-Rad protein assay prior to SDS-PAGE. Proteins were transferred to a PVDF membrane (Immobilon-P, Millipore Corporation, Bedford, Mass.) by a semi-dry transfer apparatus (Bio-Rad Laboratories, Hercules, Calif.). The membranes with transferred proteins were blotted with 10% W/V non-fat dry milk and then incubated with the primary antibody and subsequently secondary antibodies, which were labelled by horseradish peroxidase, or infrared dyes (IR). Signals were visualized by either ECL (Amersham Pharmacia Biotech, England, UK) and exposed to an X-ray film, or scanned by the Odyssey Infared Imaging System (LI-COR Biosciences, Lincoln, Nebr.). Anti-p53, DO-1, was from Santa Cruz biotechnology, Inc. (Santa Cruz, Calif.), anti-p73 (AB-1) and anti-p21 (AB-1) were obtained from Calbiochem (San Diego, Calif.). Anti-ser20 of p53 Cell were obtained from Signaling Technology (Danvers, Mass.) and anti-DR5 antibody was obtained from Cayman Chemical (Ann Arbor, Mich.).
The chemical library screening was directed at restoring “p53 responses” in p53-deficient cells. The small molecules identified by the cell-based screening procedure appeared to be able to restore p53 responses in p53-deficient colon tumors and to eliminate viable cells. Their function was further tested on wild-type p53-expressing and p53-knockout HCT116 colon adenocarcinoma cell lines. A number of candidate modulators of signaling by the p53 family appeared to induce expression of p53 target genes such as p21 or DR5(13) either with or without stabilizing p53 protein in HCT116 cells (FIG. 2A).

[2] = test system: HCT116/p53(−/−)/PG13 cells; test: p53 transcriptional activity, PG13 reporter, HCT116/p53(-/-)/PG13 cells; type: cell-based, human; conditions: p53-null HCT116, 16 h, bioluminescence
Method: Cells were treated by the indicated compounds at progressive 1:2 serial dilutions for 16 h, and the luciferase activities were detected by bioluminescence imaging. Fold induction was calculated by comparing to the nontreated cells;

[3] = test system: HCT116/p53^+/+ cells; test: Flow cytometry cell cycle profile, HCT116/p53(+/+); type: cell-based, human; conditions: #17 200 μM, #23 10 μM
Method: FIGS. 3A-3F show: Structures (A) of isolated compounds and summary of their effects on the p53 family and transcriptional targets (B). Cell cycle profiles of HCT/p53(+/+) and HCT/p53(−/−) in response to treatment by selected compounds (C-E). The dose of #17 was 200 μM and for #23 it was 10 μM. F, p73 protein levels were elevated in HCT116/p53(−/−) cells in response to treatment by selected compounds at various concentrations as indicated;
Adherent cells in a 6-well plate were trypsinized and collected in 15 ml centrifuge tubes to which were added the originally floating cells. The collected cells were ethanol-fixed and stained with propidium iodide (Sigma, St. Louis, Mo.). The DNA content of the stained cells was then measured using an Epics Elite flow cytometer (Beckman-Coulter, Fullerton, Calif.).
The ability of selected compounds from the chemical library screen to induce apoptosis of human colon tumor cells and the dependence of their effects on endogenous p53 status was further evaluated.

[4] = test system: HCT116/p53(−/−) xenografts; test: In vivo anti-tumor assay, HCT116/p53(-/-) xenografts in Balb/c nude mice; conditions: intra-peritoneal, #1 100 mg/kg, #14 50 mg/kg, #23 10 mg/kg; 7 days after treatment
Method: Balb/c nude mice were inoculated subcutaneously with 2 million HCT116/p53(−/−) cells in Matrigel on each flank. 6 mice were used in each group, in each of the two experiments. When the tumor mass reached about 3-5 mm, mice were treated with the compounds alone or following a single dose of TRAIL at 100 μg/mouse in experiment 1. At 7 days after treatment, mice were sacrificed and the tumor masses were weighted. The doses used were 100 mg/kg for #1, 50 mg/kg for #14, and 10 mg/kg for #23;
Balb/c nude mice (Charles River Laboratories, Wilmington, Mass.) were inoculated subcutaneously with 2 million HCT116/p53(−/−) cells in an equal volume of Matrigel. When tumor masses reached about 3-5 mm in diameter, mice were treated with the compounds alone by intraperitoneal injection or following a single intravenous dose of TRAIL at 100 μg/mouse. At 7 days after treatment, mice were sacrificed and the tumor masses were weighed. DLD1/PG13 cells were inoculated subcutaneously with 5 million cells. At 24 hours later mice were treated with selected compounds, and subsequently bioluminescence imaging was carried out after 16 hours as previously described [Wang, W. & El-Deiry, W. S. (2003) Cancer Biol Ther 2, 196-202].
Compounds #1, #14, #17, and #23 were tested in colon-tumor xenograft-bearing mice in order to evaluate their toxicities and potential anti-tumor effects (FIG. 4). […] The initial doses were chosen below maximal tolerated doses based on the NCI DTP toxicology databases for chemical compound testing in vivo so that mice would survive drug administration and allow subsequent evaluation of anti-tumor effects. p53-null HCT116 xenografts were first tested to document anti-tumor effects in p53-deficient tumors and an experiment to simulate therapy of established tumors was designed. A total of 2×10^6 p53-null HCT116 cells were implanted on opposite flanks subcutaneously in each of 6 nude mice in each group. When tumor masses grew to about 3-5 mm in diameter, drugs were administered intra-peritoneally (#1: 100 mg/kg; #14: 50 mg/kg; #23: 10 mg/kg), and on the next day additional groups received intravenous TRAIL (15) (100 μg/mice via the tail vein). Tumor weights were determined at 7 days later. […] Nonetheless in the future it may be possible to modify the structure of #17 or identify doses where synergistic interactions with TRAIL may be observed.

[5] = test system: p53 phosphorylation at ser20 and acetylation at lys382; test: Western blot of p53 phosphorylation and acetylation (DNA damage signaling); type: cell-based, human; conditions: 16 h; for p53 acetylation at lys382: HCT116/p53(+/+) cells; for p53 phosphorylation at ser20: HCT116/p53(+/+)/PG13 and SW480 cells
Method: FIGS. 7A-7C show: p53 levels and posttranslational modifications after treatment by selected compounds. (A) HCT116/p53(+/+) cells were treated with adriamycin, compounds nos. 1, 14, 17, and 23 for 16 h, and p53 and acetylated p53 levels were detected by Western blot. Nonspecific bands (Lower) serve as a loading control. (B) HCT116/p53(+/+)/PG13 cells were treated with adriamycin or compounds as indicated for 16 h and p53, phosphorylated p53 (ser20) levels and firefly luciferase protein expression were detected by Western blot. (C) SW480 cells were treated with compounds as indicated for 16 h, and p53 and phosphorylated p53 (ser20) levels were detected by Western blot. CP, CP-31398;
as §1
In order to determine whether DNA damage signaling is involved in the mechanism of action of selected compounds, Western blot was used to test the status of phosphorylation and acetylation of p53, which are sensitive indicators of DNA damage.

| SMILES | p53 protein expression [1] | p53 transcriptional activity (reporter assay response) [2] | sub-G1 peak (apoptosis) [3] | anti-tumor effect (tumor weights) [4] | p53 acetylation at lys382 [5] | p53 phosphorylation at ser20 [5] |
| --- | --- | --- | --- | --- | --- | --- |
| CO[C@H]1[C@@H](O)[C@@H](C)O[C@H](O[C@H]2[C@H](Oc3cccc4c(O)c5c(=O)oc6ccc(C)c7c(=O)oc(c34)c5c67)O[C@H](C)[C@H](O)[C@@H]2O)[C@@H]1O [#1] | increase p53 expression; also recorded: significantly increased p53 protein levels | stronger responses in the reporter assays | induced a sub-G1 peak characteristic of apoptosis | anti-tumor effects were observed | – | – |
| COc1cccc2c1C(=O)c1c(O)c3c(c(O)c1C2=O)CC(O)(/C(C)=N/O)CC3OC1CC(N)C(O)C(C)O1 (stereo not shown) [#14] | increase p53 expression; also recorded: significantly increased p53 protein levels | stronger responses in the reporter assays | induced a sub-G1 peak characteristic of apoptosis | anti-tumor effects were observed | strong inducers | strong inducers of p53 phosphorylation at ser20 |
| COc1cccc2c1C(=N)c1c(O)c3c(c(O)c1C2=O)C[C@@](O)(C(C)=O)C[C@@H]3O[C@H]1C[C@H](N)[C@H](O)[C@H](C)O1 [#23] | increase p53 expression; also recorded: significantly increased p53 protein levels | stronger responses in the reporter assays | induced a sub-G1 peak characteristic of apoptosis | anti-tumor effects were observed | strong inducers | strong inducers of p53 phosphorylation at ser20 |
